Laboratory results reported in patent publication US11235976B2, “Nanocarbon-iron composite system as well as composition, preparation method and use thereof” (Chongqing Lummy Pharmaceutical Co., LTD, priority 2017, dated 2022).

Each substance was assayed on subcutaneous transplantation tumors of 9 types of cancer cells (assay: Tumor growth inhibition experiments, subcutaneous transplantation tumors). Conditions: FIGS. 4-39.
Type: in vivo, mice
Method: Cells growing in a log phase are collected, the concentration of the cell suspension is adjusted to 3×10^7 cells/mL, and the cell suspension is inoculated subcutaneously into the right upper extremities of nude mice at the inoculation dosage of 0.1 mL (about 3×10^6 cells) per mouse. When the average tumor volume of the inoculated mice reaches 100 mm^3, the tumor-bearing mice are randomly divided into the following groups (8 nude mice per group): a negative control group (0.9% sodium chloride injection), a nanocarbon control group, an iron preparation control group, a nanocarbon-iron suspension experimental group, and a cis-platinum control group (intraperitoneal injection at the dosage of 5 mg/kg). The above various drugs are injected into the tumors. The tumor volume changes are recorded, and the formula for calculating the volume is Volume=(length×the square of width)/2.
Milky white and thick ascites is extracted from the H22 tumor-bearing mice, the concentration of the cell suspension is adjusted to be 3×10^7 cells/mL, 0.1 mL of cell suspension (about 3×10^6 cells) is inoculated subcutaneously into the right upper extremity of each of Kunming mice. When the average tumor volume of the inoculated mice reaches 100 mm^3, the tumor-bearing mice are randomly divided into the following groups (8 mice per group): a negative control group (0.9% sodium chloride injection), a nanocarbon control group, an iron preparation control group, a nanocarbon-iron suspension experimental group, and a cis-platinum control group (intraperitoneal injection at the dosage of 5 mg/kg). The above various drugs are injected into the tumors. The tumor volume changes are recorded, and the formula for calculating the volume is Volume=(length×the square of width)/2.

Substance	inhibition effect on growth of 9 types of tumors
ferrous gluconate	do not have an inhibition effect

The substances below were run on H22 metastatic lymph nodes (assay: Lymph node metastasis inhibition experiment). Conditions: popliteal lymph nodes.
Type: in vivo, Kunming mouse
Method: Milky white and thick ascites is extracted from the H22 tumor-bearing mice, the concentration is adjusted to be 3×10^7 cells/mL, 0.05 mL of cell suspension (about 1.5×10^6 cells) is inoculated subcutaneously into the left hind foot pads of each Kunming mouse, and thus a lymph node metastasis mouse model is obtained. The mice are treated when the diameter of the tumor reaches 6-8 mm and there is no ulcer and necrosis. The mice are randomly divided into four groups (10 mice per group): a negative control group (0.9% sodium chloride injection), a nanocarbon control group, an iron preparation control group and a nanocarbon-iron suspension experimental group. 10 days after inoculation, the mice are killed, and popliteal lymph nodes are collected, weighed and fixed for pathological examination.

Substance	Weight of Lymph Node
ferrous gluconate	57.19 ± 15.92 mg

What follows are substances tested on SMMC7721 liver cancer cells (assay: Cell experiment, cell survival rate). Conditions: SMMC-7721; iron preparation alone 0.43 μg/mL; 48 h.
Type: cell-based
Method: (§1) Cells growing in a log phase are collected, the concentration of the cell suspension is adjusted, 100 μL of cell suspension is added to each well and the cells are plated (edge wells are filled with sterile PBS) at a density of 1×10^3-10^4 cells/well. The cells are incubated for 24 hours at 37° C. under the condition of 5% CO2, a nanocarbon-iron solution having a concentration gradient (nanocarbon content: 125, 62.5, 15.63 and 3.91 μg/mL; and ferric ion content: 13.65, 6.83, 1.71 and 0.43 μg/mL) is added, and three sub-wells are set. Then the cells are incubated for 48 hours at 37° C. under the condition of 5% CO2. 10 μL of CCK8 solution is added to each well and then the cells are continuously incubated for 2 hours. The absorbance of each well is measured at OD=450 nm with the microplate reader. In addition, a negative control group, nanocarbon control groups having the same concentration and iron preparation control groups having the same concentration are set.
as §1, with “and 1” for “100”, “of a 6-well plate” for “and the cells are plated (edge wells are filled with sterile PBS)”, “3×10^4” for “1×10^3-10^4”, “1.71,” for “1.71 and”, “The” for “10 μL of CCK8 solution is added to each well and then the”, “trypsinized and counted.” for “continuously incubated for 2 hours. The absorbance of each well is measured at OD=450 nm with the microplate reader.”

Substance	Cell Survival Rate
ferrous gluconate	100%

Same assay, conditions: SMMC-7721; iron preparation alone 1.71 μg/mL; 48 h

Substance	Cell Survival Rate
ferrous gluconate	96.12%

Same assay, conditions: SMMC-7721; iron preparation alone 6.83 μg/mL; 48 h

Substance	Cell Survival Rate
ferrous gluconate	97.68%

Same assay, conditions: SMMC-7721; iron preparation alone 13.65 μg/mL; 48 h

Substance	Cell Survival Rate
ferrous gluconate	100%

The substances below were run on SKOV3 ovarian cancer cells (assay: Cell experiment, cell survival rate). Conditions: iron preparation alone 0.43 μg/mL, 48 h.
Type: cell-based
Method: as §1
as §1, with “and 1” for “100”, “of a 6-well plate” for “and the cells are plated (edge wells are filled with sterile PBS)”, “3×10^4” for “1×10^3-10^4”, “1.71,” for “1.71 and”, “The” for “10 μL of CCK8 solution is added to each well and then the”, “trypsinized and counted.” for “continuously incubated for 2 hours. The absorbance of each well is measured at OD=450 nm with the microplate reader.”

Substance	Cell Survival Rate
ferrous gluconate	100%

Same assay, conditions: iron preparation alone 1.71 μg/mL, 48 h

Substance	Cell Survival Rate
ferrous gluconate	100%

Same assay, conditions: iron preparation alone 6.83 μg/mL, 48 h

Substance	Cell Survival Rate
ferrous gluconate	96.47%

Same assay, conditions: iron preparation alone 13.65 μg/mL, 48 h

Substance	Cell Survival Rate
ferrous gluconate	97.11%

What follows are substances tested on Hela cervical cancer cells (assay: Cell experiment, cell survival rate). Conditions: iron preparation alone 0.43 μg/mL, 48 h.
Type: cell-based
Method: as §1
as §1, with “and 1” for “100”, “of a 6-well plate” for “and the cells are plated (edge wells are filled with sterile PBS)”, “3×10^4” for “1×10^3-10^4”, “1.71,” for “1.71 and”, “The” for “10 μL of CCK8 solution is added to each well and then the”, “trypsinized and counted.” for “continuously incubated for 2 hours. The absorbance of each well is measured at OD=450 nm with the microplate reader.”

Substance	Cell Survival Rate
ferrous gluconate	100%

Same assay, conditions: iron preparation alone 1.71 μg/mL, 48 h

Substance	Cell Survival Rate
ferrous gluconate	100%

Same assay, conditions: iron preparation alone 6.83 μg/mL, 48 h

Substance	Cell Survival Rate
ferrous gluconate	100%

Same assay, conditions: iron preparation alone 13.65 μg/mL, 48 h

Substance	Cell Survival Rate
ferrous gluconate	97.86%

What follows are substances tested on MDA-MB-231 breast cancer cells (assay: Cell experiment, cell survival rate). Conditions: iron preparation alone 0.43 μg/mL, 48 h.
Type: cell-based
Method: as §1
as §1, with “and 1” for “100”, “of a 6-well plate” for “and the cells are plated (edge wells are filled with sterile PBS)”, “3×10^4” for “1×10^3-10^4”, “1.71,” for “1.71 and”, “The” for “10 μL of CCK8 solution is added to each well and then the”, “trypsinized and counted.” for “continuously incubated for 2 hours. The absorbance of each well is measured at OD=450 nm with the microplate reader.”

Substance	Cell Survival Rate
ferrous gluconate	100%

Same assay, conditions: iron preparation alone 1.71 μg/mL, 48 h

Substance	Cell Survival Rate
ferrous gluconate	100%

Same assay, conditions: iron preparation alone 6.83 μg/mL, 48 h

Substance	Cell Survival Rate
ferrous gluconate	100%

Same assay, conditions: iron preparation alone 13.65 μg/mL, 48 h

Substance	Cell Survival Rate
ferrous gluconate	100%

The substances below were run on SGC-7901 stomach cancer cells (assay: Cell experiment, cell survival rate). Conditions: iron preparation alone 0.43 μg/mL, 48 h.
Type: cell-based
Method: as §1
as §1, with “and 1” for “100”, “of a 6-well plate” for “and the cells are plated (edge wells are filled with sterile PBS)”, “3×10^4” for “1×10^3-10^4”, “1.71,” for “1.71 and”, “The” for “10 μL of CCK8 solution is added to each well and then the”, “trypsinized and counted.” for “continuously incubated for 2 hours. The absorbance of each well is measured at OD=450 nm with the microplate reader.”

Substance	Cell Survival Rate
ferrous gluconate	100%

Same assay, conditions: iron preparation alone 1.71 μg/mL, 48 h

Substance	Cell Survival Rate
ferrous gluconate	100%

Same assay, conditions: iron preparation alone 6.83 μg/mL, 48 h

Substance	Cell Survival Rate
ferrous gluconate	99.48%

Same assay, conditions: iron preparation alone 13.65 μg/mL, 48 h

Substance	Cell Survival Rate
ferrous gluconate	97.43%

These substances were tested on murine liver cancer H22 cells (assay: Cell experiment, cell survival rate). Conditions: iron preparation alone 0.43 μg/mL, 48 h.
Type: cell-based
Method: as §1
as §1, with “and 1” for “100”, “of a 6-well plate” for “and the cells are plated (edge wells are filled with sterile PBS)”, “3×10^4” for “1×10^3-10^4”, “1.71,” for “1.71 and”, “The” for “10 μL of CCK8 solution is added to each well and then the”, “trypsinized and counted.” for “continuously incubated for 2 hours. The absorbance of each well is measured at OD=450 nm with the microplate reader.”

Substance	Cell Survival Rate
ferrous gluconate	100%
